ChEMBL document CHEMBL3244102, “Piperazinylpyrazines with central serotoninmimetic activity” (J Med Chem, 1978)
In brackets after ≈: the same amount, converted by molar mass. Activity calls are given as the source filed them. No cut-off for these calls is given here.

Tests used:
Mus musculus [1] = assay: Central serotoninmimetic activity in CF mouse assessed as induction of head twitches at 6 mg/kg, ip after 60 mins; type: functional, organism-based; design: dose 6 mg/kg
Mus musculus [2] = assay: Central serotoninmimetic activity in CF mouse assessed as induction of head twitches at 30 mg/kg, ip after 60 mins; type: functional, organism-based; design: dose 30 mg/kg
[3] = Peripheral serotoninmimetic activity in Charles River rat uterus assessed as uterine contraction measured as tension developed at 0.1 ug/ml; type: ADME, tissue-based
[4] = Peripheral serotoninmimetic activity in Charles River rat uterus assessed as uterine contraction; type: ADME, tissue-based
[5] = Peripheral serotoninmimetic activity in Charles River rat uterus assessed as uterine contraction measured as tension developed at 0.00050 ug/ml relative to methacholine; type: ADME, tissue-based
[6] = Peripheral serotoninmimetic activity in Charles River rat uterus assessed as uterine contraction measured as tension developed at 0.00075 ug/ml relative to methacholine; type: ADME, tissue-based
[7] = Peripheral serotoninmimetic activity in Charles River rat uterus assessed as uterine contraction measured as tension developed at 0.001 ug/ml relative to methacholine; type: ADME, tissue-based
[8] = Peripheral serotoninmimetic activity in Charles River rat uterus assessed as uterine contraction measured as tension developed at 0.005 ug/ml relative to methacholine; type: ADME, tissue-based
[9] = Peripheral serotoninmimetic activity in Charles River rat uterus assessed as uterine contraction measured as tension developed at 0.01 ug/ml relative to methacholine; type: ADME, tissue-based
[10] = Peripheral serotoninmimetic activity in Charles River rat uterus assessed as uterine contraction measured as tension developed at 0.01 ug/ml in presence of hydroxindasol; type: ADME, tissue-based
[11] = Peripheral serotoninmimetic activity in Charles River rat uterus assessed as uterine contraction measured as tension developed at 0.01 ug/ml in presence of methylsergide; type: ADME, tissue-based
[12] = Peripheral serotoninmimetic activity in Charles River rat uterus assessed as uterine contraction measured as tension developed at 0.005 ug/ml; type: ADME, tissue-based
[13] = Peripheral serotoninmimetic activity in Charles River rat uterus assessed as uterine contraction measured as tension developed at 0.00075 ug/ml; type: ADME, tissue-based
[14] = Peripheral serotoninmimetic activity in Charles River rat uterus assessed as uterine contraction measured as tension developed at 0.001 ug/ml; type: ADME, tissue-based
[15] = Peripheral serotoninmimetic activity in Charles River rat uterus assessed as uterine contraction measured as tension developed at 0.00050 ug/ml; type: ADME, tissue-based
[16] = Peripheral serotoninmimetic activity in Charles River rat uterus assessed as uterine contraction measured as tension developed at 0.01 ug/ml; type: ADME, tissue-based
[17] = Peripheral serotoninmimetic activity in Charles River rat uterus assessed as uterine contraction measured as tension developed at 0.05 ug/ml; type: ADME, tissue-based
[18] = Peripheral serotoninmimetic activity in Charles River rat uterus assessed as uterine contraction measured as tension developed at 1 ug/ml; type: ADME, tissue-based
[19] = Peripheral serotoninmimetic activity in Charles River rat uterus assessed as uterine contraction measured as tension developed at 0.5 ug/ml; type: ADME, tissue-based
[20] = Peripheral serotoninmimetic activity in Charles River rat uterus assessed as uterine contraction measured as tension developed at 5 ug/ml; type: ADME, tissue-based
[21] = Peripheral serotoninmimetic activity in Charles River rat uterus assessed as uterine contraction measured as tension developed at 10 ug/ml; type: ADME, tissue-based
[22] = Peripheral serotoninmimetic activity in Charles River rat uterus assessed as uterine contraction measured as tension developed at 20 ug/ml; type: ADME, tissue-based
[23] = Peripheral serotoninmimetic activity in Charles River rat uterus assessed as uterine contraction measured as tension developed at 1 ug/ml relative to methacholine; type: ADME, tissue-based
[24] = Peripheral serotoninmimetic activity in Charles River rat uterus assessed as uterine contraction measured as tension developed at 0.5 ug/ml relative to methacholine; type: ADME, tissue-based
[25] = Peripheral serotoninmimetic activity in Charles River rat uterus assessed as uterine contraction measured as tension developed at 5 ug/ml relative to methacholine; type: ADME, tissue-based
[26] = Peripheral serotoninmimetic activity in Charles River rat uterus assessed as uterine contraction measured as tension developed at 10 ug/ml relative to methacholine; type: ADME, tissue-based
[27] = Peripheral serotoninmimetic activity in Charles River rat uterus assessed as uterine contraction measured as tension developed at 10 ug/ml in presence of hydroxindasol; type: ADME, tissue-based
[28] = Peripheral serotoninmimetic activity in Charles River rat uterus assessed as uterine contraction measured as tension developed at 10 ug/ml in presence of methylsergide; type: ADME, tissue-based
[29] = Ratio of serotonin EC50 to compound EC50 for peripheral serotoninmimetic activity in Charles River rat uterus; type: ADME, tissue-based
Mus musculus [30] = assay: Central serotoninmimetic activity in CF mouse assessed as induction of head twitches at 10 mg/kg, ip after 30 to 60 mins in presence of methergoline; type: functional, organism-based; design: dose 10 mg/kg
Mus musculus [31] = assay: Central serotoninmimetic activity in CF mouse assessed as induction of head twitches at 10 mg/kg, ip after 30 to 60 mins in presence of cyproheptadine; type: functional, organism-based; design: dose 10 mg/kg
Mus musculus [32] = assay: Central serotoninmimetic activity in CF mouse assessed as induction of head twitches at 10 mg/kg, ip after 30 mins in presence of xylamidine; type: functional, organism-based; design: dose 10 mg/kg
Mus musculus [33] = assay: Central serotoninmimetic activity in CF mouse assessed as induction of head twitches at 60 mg/kg, ip after 30 mins in presence of xylamidine; type: functional, organism-based; design: dose 60 mg/kg

Cc1cncc(N2CCNCC2)n1
Activity (Mus musculus [1]): Active | Activity (Mus musculus [2]): Active

Clc1cncc(N2CCN(c3cncc(Cl)n3)CC2)n1
Activity (Mus musculus [1]): inactive

c1ccc2nc(N3CCNCC3)ccc2c1
Activity (Mus musculus [1]): inactive | Activity (Mus musculus [2]): inactive

COC(=O)c1nc(Cl)c(N2CCNCC2)nc1N
Activity (Mus musculus [2]): inactive

Clc1cnc(N2CCNCC2)cn1
Activity (Mus musculus [1]): inactive

O=C1CN(c2cncc(Cl)n2)CCN1
Activity (Mus musculus [1]): inactive | Activity (Mus musculus [2]): inactive

NCCc1c[nH]c2ccc(O)cc12 [SEROTONIN]
Activity [3]: 3.2 g | EC50 [4]: 0.0083 µg/mL (≈ 0.0471 µM) | Emax [5]: 7% | Emax [6]: 37% | Emax [7]: 70% | Emax [8]: 80% | Emax [9]: 92% | Activity [10]: Non-toxic | Activity [11]: Non-toxic | Activity [12]: 2.67 g | Activity [13]: 1.23 g | Activity [14]: 2.32 g | Activity [15]: 0.22 g | Activity [16]: 3.08 g | Activity [17]: 3.18 g

Cc1cnc(C)c(N2CCNCC2)n1
Activity (Mus musculus [1]): inactive

CC(=O)OC(C)C[N+](C)(C)C (stereo unspecified) [METHACHOLINE]
Activity [18]: 2.65 g

c1ccc(-c2cncc(N3CCNCC3)n2)cc1
Activity (Mus musculus [2]): inactive

c1ccc(-c2cnc(N3CCNCC3)cn2)cc1
Activity (Mus musculus [1]): inactive | Activity (Mus musculus [2]): inactive

Cl.Clc1cncc(N2CCNCC2)n1
Activity [3]: 0 g | EC50 [4]: 2.411 µg/mL | Activity [18]: 0.4 g | Activity [19]: 0.27 g | Activity [20]: 2.12 g | Activity [21]: 2.28 g | Activity [22]: 2.42 g | Emax [23]: 15% | Emax [24]: 10% | Emax [25]: 80% | Emax [26]: 86% | Activity [27]: Non-toxic | Activity [28]: Non-toxic | Ratio EC50 [29]: 300 | Activity (Mus musculus [1]): Active | Activity (Mus musculus [2]): Active | Activity (Mus musculus [30]): inactive | Activity (Mus musculus [31]): inactive | Activity (Mus musculus [32]): Active | Activity (Mus musculus [33]): inactive

CN(C)CCCN1CCN(c2cncc(Cl)n2)CC1
Activity (Mus musculus [1]): inactive | Activity (Mus musculus [2]): inactive

CN(C)c1cncc(N2CCNCC2)n1
Activity (Mus musculus [1]): inactive | Activity (Mus musculus [2]): inactive

CS(=O)(=O)c1cncc(N2CCNCC2)n1
Activity (Mus musculus [1]): inactive

Clc1nccnc1N1CCNCC1
Activity (Mus musculus [1]): inactive | Activity (Mus musculus [2]): inactive

c1cnc(N2CCNCC2)cn1
Activity (Mus musculus [1]): inactive

N#Cc1cncc(N2CCNCC2)n1
Activity (Mus musculus [1]): inactive | Activity (Mus musculus [2]): inactive

Cc1nccnc1N1CCNCC1
Activity (Mus musculus [1]): inactive | Activity (Mus musculus [2]): inactive
